Data from patent US11236047B2 (ASTEX THERAPEUTICS LIMITED, priority 2017, dated 2022).
Read-outs that look alike come from different tables or passages of the source.

Tests used:
MDM2-p53 interaction = MDM2-p53 interaction (Homo sapiens (Human), UniProt Q00987); details: for inhibition at 0.001 µM: read-out: MDM2 % inhibition @0.0010; for inhibition at 0.03 µM: read-out: MDM2 % inhibition @0.030; for inhibition at 0.1 µM: read-out: MDM2 % inhibition @0.10
Protocol: MDM2-053 Interaction Using a 96-Well Plate Binding Assay (ELISA)
The ELISA assay was performed in streptavidin coated plates which were preincubated with 200 μl per well of 1 μg ml^−1 biotinylated IP3 peptide. The plates were ready to use for MDM2 binding after washing the plate with PBS.
The bound HRP activity was measured by enhanced chemiluminesence (ECL™, Amersham Biosciences) using the oxidation of the diacylhydrazide substrate, luminol, to generate a quantifiable light signal. The percentage of MDM2 inhibition at a given concentration is calculated as the [1−(RLU detected in the compound treated sample−RLU negative DMSO control)÷(RLU of DMSO positive and negative controls)]×100 or as the (RLU detected in the compound treated sample÷RLU of DMSO controls)×100. The IC50 was calculated using a plot of % MDM2 inhibition vs concentration and is the average of two or three independent experiments.

SJSA-1 cells = assay: Protocol B: SJSA-1 CellTiter-Glo luminescent cell viability assay
[1] = test system: SN40R2 cells (p53 mutated, MDM2 amplified osteosarcoma); assay: Protocol A: SN40R2 growth inhibition (sulphorhodamine B); details: for inhibition at 50 µM: read-out: SN40R2 % inhibition at 50
Protocol: Protocol A: SJSA-1 and SN40R2 Assays
The MDM2 amplified cell lines tested were an isogenic matched pair of p53 wild-type and mutated osteosarcoma (SJSA-1 and SN40R2, respectively). […] Following incubation with the SRB dye at room temperature for 30 min, the plates were washed with 1% acetic acid and left to dry. […] The GI50 was calculated by non-linear regression analysis of the data using Prism v4.0 statistical software.

SN40R2 cells = assay: Protocol B: SN40R2 CellTiter-Glo luminescent cell viability assay; details: for inhibition at 3 µM: read-out: SN40R2 % inhibition at 3, Protocol B, SN40R2, at 3 μM
[2] = read-out: SJSA1 IC50, Protocol B, SJSA-1
[3] = read-out: SN40R2 % inhibition at 10, Protocol B, SN40R2, at 10 μM
[4] = Homo sapiens, SJSA-1, read-out: SJSA1 IC50 (μM), Protocol B, SJSA-1

MDM2-p53 interaction, sequence (Q00987 whole entry): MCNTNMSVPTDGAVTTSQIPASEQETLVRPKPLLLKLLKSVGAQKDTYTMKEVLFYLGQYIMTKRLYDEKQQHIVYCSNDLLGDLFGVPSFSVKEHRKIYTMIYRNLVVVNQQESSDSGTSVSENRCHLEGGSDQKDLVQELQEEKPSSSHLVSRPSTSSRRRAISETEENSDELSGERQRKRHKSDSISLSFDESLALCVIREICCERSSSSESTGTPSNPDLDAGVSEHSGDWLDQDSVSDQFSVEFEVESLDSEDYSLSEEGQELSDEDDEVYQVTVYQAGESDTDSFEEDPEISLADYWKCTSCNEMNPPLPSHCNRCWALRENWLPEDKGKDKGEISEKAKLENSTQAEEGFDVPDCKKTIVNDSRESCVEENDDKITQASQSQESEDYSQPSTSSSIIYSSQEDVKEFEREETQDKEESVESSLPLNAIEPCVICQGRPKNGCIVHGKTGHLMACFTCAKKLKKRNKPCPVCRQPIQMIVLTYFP

Row | Structure (SMILES) | inhibition at 0.001 µM (MDM2-p53 interaction) | IC50 (SJSA-1 cells; [2]) | inhibition at 10 µM (SN40R2 cells; [3]) | other results
1 | CCC(O)(c1cc(F)c2c(c1)C(=O)N(Cc1ncc(Cl)cn1)[C@@]2(O[C@H]1CCOC1)c1ccc(Cl)cc1)c1cn(C)cn1 (single isomer, unassigned) [Example 475] | 71% | 0.022 µM |  | inhibition at 50 µM [1]: 46%
2 | CC(C)(O)c1cc(F)c2c(c1)C(=O)N(Cc1ccc(Cl)cc1)[C@@]2(OCC1(CO)CC1)c1ccc(Cl)cc1 [Example 2, (3R)-3-(4-chlorophenyl)-2-[(4-chlorophenyl)methyl]-4-fluoro-3-{[1-(hydroxymethyl)cyclopropyl]methoxy}-6-(2-hydroxypropan-2-yl)-2,3-dihydro-1H-isoindol-1-one] |  |  |  | IC50 ([1]; 72 h, read-out: SN40R2 IC50 (μM) (Protocol A)): 17 µM
3 | CCC(O)(CN1CCNCC1)c1cc(F)c2c(c1)C(=O)N(Cc1ncc(Cl)cn1)[C@@]2(OCC1(F)COC1)c1ccc(Cl)cc1 (single isomer, unassigned) [Example 538] |  | 2.2 µM | 43% | inhibition at 0.03 µM (MDM2-p53 interaction): 44%
4 | CCC(O)(CN1CCNCC1)c1cc(F)c2c(c1)C(=O)N(Cc1ncc(Cl)cn1)[C@@]2(OCC1(C#N)CC1)c1ccc(Cl)cc1 (single isomer, unassigned) [Example 536] | 64% | 0.13 µM | 46% | 
5 | [2H]C([2H])(O)C1(C([2H])([2H])O[C@]2(c3ccc(Cl)cc3)c3c(F)cc(C(C)(C)O)cc3C(=O)N2Cc2ncc(C#N)cn2)CC1 [Example 513, 2-{[(1R)-1-(4-chlorophenyl)-7-fluoro-1-({1-[hydroxydideuteromethyl]cyclopropyl}dideuteromethoxy)-5-(2-hydroxypropan-2-yl)-3-oxo-2,3-dihydro-1H-isoindol-2-yl]methyl}pyrimidine-5-carbonitrile] |  |  | 4% | inhibition at 50 µM [1]: 19%
6 | CC[C@@](O)(c1cc(F)c2c(c1)C(=O)N(Cc1ncc(C#N)cn1)[C@@]2(O[C@H]1CCOC1)c1ccc(Cl)cc1)C1CCC(O)CC1 (stereo partly drawn) [Example 503, 2-{[(1R)-1-(4-chlorophenyl)-7-fluoro-5-{1-hydroxy-1-[trans-4-hydroxycyclohexyl]propyl}-3-oxo-1-[(3S)-oxolan-3-yloxy]-2,3-dihydro-1H-isoindol-2-yl]methyl}pyrimidine-5-carbonitrile] | 87% |  | 13% | IC50 (SJSA-1 cells; [4]): 0.011 µM
7 | CCC(O)(c1cc(F)c2c(c1)C(=O)N(Cc1ncc(Cl)cn1)[C@@]2(OCCO)c1ccc(Cl)cc1)[C@H]1CC[C@H](O)CC1 (single isomer, unassigned) [Example 517] | 82% | 0.01 µM |  | inhibition at 50 µM [1]: 26%
8 | CCC(O)(c1cc(F)c2c(c1)C(=O)N(Cc1ncc(Cl)cn1)[C@@]2(O[C@H]1CCOC1)c1ccc(Cl)cc1)c1cn(C)cn1 (single isomer, unassigned) [Example 474] |  | 1.3 µM | 12% | inhibition at 0.03 µM (MDM2-p53 interaction): 38%
9 | CCC(O)(c1cc(F)c2c(c1)C(=O)N(Cc1ncc(Cl)cn1)[C@@]2(O[C@H]1CCOC1)c1ccc(Cl)cc1)C1(F)CCNCC1 (single isomer, unassigned) [Example 540] |  | 1.8 µM | 62% | inhibition at 0.03 µM (MDM2-p53 interaction): 33%
10 | CCC(O)(c1cc(F)c2c(c1)C(=O)N(Cc1ncc(Cl)cn1)[C@@]2(OC[C@@H](C)O)c1ccc(Cl)cc1)C1(F)CCNCC1 (single isomer, unassigned) [Example 543] | 68% |  | -6% | 
11 | CCC(O)(c1cc(F)c2c(c1)C(=O)N(Cc1ccc(C#N)cn1)[C@@]2(OC)c1ccc(Cl)cc1)[C@H]1CC[C@H](O)CC1 (single isomer, unassigned) [Example 521] | 77% |  | 11% | 
12 | CCC(O)(c1cc(F)c2c(c1)C(=O)N(Cc1ncc(Cl)cc1O)[C@@]2(OCCO)c1ccc(Cl)cc1)c1cn(C)cn1 (stereo partly drawn) [Example 443, (3R)-2-[(5-chloro-3-hydroxypyridin-2-yl)methyl]-3-(4-chlorophenyl)-4-fluoro-6-[1-hydroxy-1-(1-methyl-1H-imidazol-4-yl)propyl]-3-(2-hydroxyethoxy)-2,3-dihydro-1H-isoindol-1-one] |  |  |  | inhibition at 10 µM (SN40R2 cells; read-out: SN40R2 % inhibition at 10): 3%; IC50 (SJSA-1 cells; [4]): 0.093 µM; IC50 ([1]; read-out: SN40R2 IC50 (μM)): 38 µM
13 | Cc1c[nH]c(C(C)(O)c2cc(F)c3c(c2)C(=O)N(Cc2ccc(Cl)cn2)[C@@]3(OCC2(O)CC2)c2ccc(Cl)cc2)n1 (mixture of isomers) [Example 332, (3R)-3-(4-chlorophenyl)-2-[(5-chloropyridin-2-yl)methyl]-4-fluoro-6-[1-hydroxy-1-(4-methyl-1H-imidazol-2-yl)ethyl]-3-[(1-hydroxycyclopropyl)methoxy]-2,3-dihydro-1H-isoindol-1-one] |  |  | 5% | inhibition at 0.03 µM (MDM2-p53 interaction): 60%
14 | CC[C@@](O)(c1cc(F)c2c(c1)C(=O)N(Cc1ncc(Cl)cn1)[C@@]2(OCC1(CO)CC1)c1ccc(Cl)cc1)C1CCN(C)CC1 [Example 556, (3R)-3-(4-chlorophenyl)-2-[(5-chloropyrimidin-2-yl)methyl]-4-fluoro-6-[(1S)-1-hydroxy-1-(1-methylpiperidin-4-yl)propyl]-3-{[1-(hydroxymethyl)cyclopropyl]methoxy}-2,3-dihydro-1H-isoindol-1-one] | 91% |  | 14% | 
15 | CCC(O)(c1cc(F)c2c(c1)C(=O)N(Cc1ncc(Cl)cn1)[C@@]2(OCC1(C#N)CC1)c1ccc(Cl)cc1)C1(F)CCNCC1 (single isomer, unassigned) [Example 545] | 94% |  |  | inhibition at 3 µM (SN40R2 cells): 4%
16 | CCC(O)(c1cc(F)c2c(c1)C(=O)N(Cc1ccc(C#N)cn1)[C@@]2(O[C@H]1CCOC1)c1ccc(Cl)cc1)c1ccn(C)n1 (single isomer, unassigned) [Example 335] |  | 2.8 µM | 7% | inhibition at 0.1 µM (MDM2-p53 interaction): 51%
17 | CCC(O)(c1cc(F)c2c(c1)C(=O)N(Cc1ncc(Cl)cn1)[C@@]2(OCCO)c1ccc(Cl)cc1)C1(F)CCN(C)CC1 (single isomer, unassigned) [Example 565] | 65% |  | 11% | 
18 | CCC(O)(c1cc(F)c2c(c1)C(=O)N(Cc1ncc(Cl)cn1)[C@@]2(OCC1(CO)CC1)c1ccc(Cl)cc1)c1cn(C)cn1 (single isomer, unassigned) [Example 476] |  | 0.6 µM | 4% | inhibition at 0.03 µM (MDM2-p53 interaction): 51%
19 | CCC(O)(c1cc(F)c2c(c1)C(=O)N(Cc1ncc(Cl)cn1)[C@@]2(OCC1(C#N)CC1)c1ccc(Cl)cc1)C1(F)CCN(C)CC1 (single isomer, unassigned) [Example 564] | 86% |  |  | inhibition at 3 µM (SN40R2 cells): 10%
20 | CCC(O)(c1cc(F)c2c(c1)C(=O)N(Cc1ccc(C#N)cn1)[C@@]2(O[C@H]1CCOC1)c1ccc(Cl)cc1)C1(F)CCOCC1 (stereo partly drawn) [Example 446, 6-{[(1R)-1-(4-chlorophenyl)-7-fluoro-5-[1-(4-fluorooxan-4-yl)-1-hydroxypropyl]-3-oxo-1-[(3S)-oxolan-3-yloxy]-2,3-dihydro-1H-isoindol-2-yl]methyl}pyridine-3-carbonitrile] |  | 0.023 µM |  | IC50 ([1]; read-out: SN40R2 IC50 (μM)): 29 µM
21 | CCC(O)(c1cc(F)c2c(c1)C(=O)N(Cc1ncc(Cl)cn1)[C@@]2(O[C@H]1CCOC1)c1ccc(Cl)cc1)C1CCNCC1 (single isomer, unassigned) [Example 448] | 84% |  |  | inhibition at 30 µM (SN40R2 cells; read-out: SN40R2 % inhibition at 30, Protocol B, SN40R2, at 30 μM): 48%
22 | CN1CCC(C(C)(O)c2cc(F)c3c(c2)C(=O)N(Cc2ncc(Cl)cn2)[C@@]3(OCC2(F)COC2)c2ccc(Cl)cc2)CC1 (single isomer, unassigned) [Example 558] |  |  | 6% | inhibition at 0.003 µM (MDM2-p53 interaction; read-out: MDM2 % inhibition @0.0030): 53%
23 | CCC(O)(c1cc(F)c2c(c1)C(=O)N(Cc1ncc(C#N)cn1)[C@@]2(OC)c1ccc(Cl)cc1)C1(F)CCN(C)CC1 (single isomer, unassigned) [Example 575] | 38% |  | 14% | 
24 | CCC(O)(c1cc(F)c2c(c1)C(=O)N(Cc1ncc(Cl)cn1)[C@@]2(OC)c1ccc(Cl)cc1)C1(F)CCNCC1 (single isomer, unassigned) [Example 544] | 86% |  | 109% | 
25 | CC[C@](O)(c1cc(F)c2c(c1)C(=O)N(Cc1ncc(C#N)cn1)[C@@]2(O[C@H]1CCOC1)c1ccc(Cl)cc1)C1(F)CCOCC1 [Example 508, 2-{[(1R)-1-(4-chlorophenyl)-7-fluoro-5-[(1S)-1-(4-fluorooxan-4-yl)-1-hydroxypropyl]-3-oxo-1-[(3S)-oxolan-3-yloxy]-2,3-dihydro-1H-isoindol-2-yl]methyl}pyrimidine-5-carbonitrile] |  |  | 9% | inhibition at 0.1 µM (MDM2-p53 interaction): 17%; inhibition at 10 µM (SJSA-1 cells; Homo sapiens, SJSA-1, read-out: SJSA1 % inhibition at 10): 11%
26 | CCC(O)(c1cc(F)c2c(c1)C(=O)N(Cc1ncc(Cl)cn1)[C@@]2(OC)c1ccc(Cl)cc1)C1(F)CCN(C2COC2)CC1 (single isomer, unassigned) [Example 552] | 79% |  | 7% | 
27 | CC[C@@](O)(c1cc(F)c2c(c1)C(=O)N(Cc1ncc(C#N)cn1)[C@@]2(O[C@H]1C[C@@H](O)C1)c1ccc(Cl)cc1)C1(F)CCOCC1 [Example 505, 2-{[(1R)-1-(4-chlorophenyl)-7-fluoro-5-[(1R)-1-(4-fluorooxan-4-yl)-1-hydroxypropyl]-3-oxo-1-[cis-3-hydroxycyclobutoxy]-2,3-dihydro-1H-isoindol-2-yl]methyl}pyrimidine-5-carbonitrile] | 60% |  | 5% | 
